Earlier results on 2 molecules are cited in patent US6645994B1, “Method of treating dry eye disorders” (Alcon, Inc., priority 2001, dated 2003).

Data set [1] relates to acyl-CoA synthetase. The note with it: compared with triacsins A, B and C.
Data set [2] relates to mucin subtype MUC1. The note with it: literature report, Cornea 2000.
In data set [3] the test system is soluble goblet cell mucins (MUC2, MUC5AC). The note with it: literature report, Cornea 2000.

Regarding `CC/C=C/C=C/C=C/C=C/C=NN=NO` [Triacsin C, 1-hydroxy-3-(E,E,E,E-2′4′6′8′-undecatetraenylidine) triazene], the “relative potency as acyl-CoA synthetase inhibitor among triacsins” value in data set [1] is reported as “most potent of these compounds”.
Turning to `CCCCC[C@H](O)/C=C/C=C\C/C=C\C/C=C\CCCC(=O)O` [15(S)-HETE], the “secretion of mucin subtype MUC1” value in data set [2] is listed as “effective secretagogue”. Further, in data set [3], the “secretion of soluble goblet cell mucins (MUC2, MUC5AC)” value is “inability of 15(S)-HETE to stimulate secretion”.
